Test results as given in PMC7730441, “Acetylcholinesterase and butyrylcholinesterase inhibitory activities of khellactone coumarin derivatives isolated from Peucedanum japonicum Thurnberg” (Scientific Reports, 2020).
≈ marks a conversion by molar mass, not a printed value. Like-named read-outs stand apart in the source and are kept apart here.

Key:
[1] = tested on: AChE; details: cited from earlier work
[2] = target: T1, recombinant human MAO-B (Homo sapiens, UniProt P27338); assay: MAO-B inhibition assay (benzylamine); type: biochemical; details: read-out: Residual activity at 10 µM (%) MAO-B
T1 construct: purchased Sigma-Aldrich
T1 sequence (P27338 1-520): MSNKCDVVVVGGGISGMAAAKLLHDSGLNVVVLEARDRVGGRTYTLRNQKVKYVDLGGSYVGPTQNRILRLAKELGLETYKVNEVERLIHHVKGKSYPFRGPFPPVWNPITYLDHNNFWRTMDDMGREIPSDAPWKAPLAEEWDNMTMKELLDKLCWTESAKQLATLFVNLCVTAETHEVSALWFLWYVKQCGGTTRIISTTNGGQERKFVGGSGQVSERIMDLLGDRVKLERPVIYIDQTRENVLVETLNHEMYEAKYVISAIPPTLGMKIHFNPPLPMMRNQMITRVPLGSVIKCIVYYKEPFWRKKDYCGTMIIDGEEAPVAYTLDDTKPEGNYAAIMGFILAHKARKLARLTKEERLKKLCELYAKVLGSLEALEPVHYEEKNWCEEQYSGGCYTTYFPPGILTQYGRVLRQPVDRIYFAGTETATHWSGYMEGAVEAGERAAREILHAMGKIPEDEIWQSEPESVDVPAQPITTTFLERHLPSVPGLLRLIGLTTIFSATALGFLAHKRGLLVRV
Procedure: (§1) AChE assays were performed as described by Ellman et al.[41] with slight modifications. […] DTNB was used for color development, caused by reaction between it and thiocholine (a product of AChE). For inhibitory assays, compounds were preincubated with AChE for 15 min prior to ATCI and DTNB addition. BChE activity was assayed using the same method, but BTCI was used instead of ATCI.
(§2) Inhibitions of the activities of AChE, BChE, MAO-A, and MAO-B by the 15 compounds were investigated at an inhibitor concentration of 10 µM. IC50 values were also determined. […] The inhibition types and Ki values were determined using Lineweaver–Burk Plots and secondary plots.

[3] = target: T2, AChE (Type VI-S; from Electrophorus electricus) (Electrophorus electricus, UniProt O42275); assay: biochemical; details: for remaining activity at 10 µM: read-out: Residual activity at 10 µM (%) AChE, inhibitor 10 µM; for SI = IC50 of AChE/ IC50 of BChE: selectivity index
T2 construct: AChE (Type VI-S; from Electrophorus electricus); purchased Sigma-Aldrich Type VI-S (catalogue number not given)
T2 sequence (O42275 24-633): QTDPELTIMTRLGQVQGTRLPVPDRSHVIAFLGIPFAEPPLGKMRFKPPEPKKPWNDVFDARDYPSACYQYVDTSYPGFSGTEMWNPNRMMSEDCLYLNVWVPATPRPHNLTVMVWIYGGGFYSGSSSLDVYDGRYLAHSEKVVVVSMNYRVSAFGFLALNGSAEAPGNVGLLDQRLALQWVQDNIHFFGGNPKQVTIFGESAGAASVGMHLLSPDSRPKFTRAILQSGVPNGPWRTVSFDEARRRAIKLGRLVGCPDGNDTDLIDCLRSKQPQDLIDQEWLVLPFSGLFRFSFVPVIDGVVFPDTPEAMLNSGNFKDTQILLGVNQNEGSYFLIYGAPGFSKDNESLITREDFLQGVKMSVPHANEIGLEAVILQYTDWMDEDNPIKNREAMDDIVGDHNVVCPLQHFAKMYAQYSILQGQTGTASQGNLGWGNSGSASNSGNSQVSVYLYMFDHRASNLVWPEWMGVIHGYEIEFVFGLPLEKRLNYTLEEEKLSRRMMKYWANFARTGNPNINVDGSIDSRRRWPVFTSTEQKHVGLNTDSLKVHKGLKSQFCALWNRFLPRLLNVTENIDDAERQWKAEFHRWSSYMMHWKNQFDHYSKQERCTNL
Procedure: as §1, §2

[4] = target: T3, BChE (from equine serum) (Equus caballus, UniProt P81908); assay: biochemical; details: 15 min preincubation
T3 construct: BChE (from equine serum); purchased Sigma-Aldrich; host or cells: equine serum
T3 sequence (P81908 whole entry): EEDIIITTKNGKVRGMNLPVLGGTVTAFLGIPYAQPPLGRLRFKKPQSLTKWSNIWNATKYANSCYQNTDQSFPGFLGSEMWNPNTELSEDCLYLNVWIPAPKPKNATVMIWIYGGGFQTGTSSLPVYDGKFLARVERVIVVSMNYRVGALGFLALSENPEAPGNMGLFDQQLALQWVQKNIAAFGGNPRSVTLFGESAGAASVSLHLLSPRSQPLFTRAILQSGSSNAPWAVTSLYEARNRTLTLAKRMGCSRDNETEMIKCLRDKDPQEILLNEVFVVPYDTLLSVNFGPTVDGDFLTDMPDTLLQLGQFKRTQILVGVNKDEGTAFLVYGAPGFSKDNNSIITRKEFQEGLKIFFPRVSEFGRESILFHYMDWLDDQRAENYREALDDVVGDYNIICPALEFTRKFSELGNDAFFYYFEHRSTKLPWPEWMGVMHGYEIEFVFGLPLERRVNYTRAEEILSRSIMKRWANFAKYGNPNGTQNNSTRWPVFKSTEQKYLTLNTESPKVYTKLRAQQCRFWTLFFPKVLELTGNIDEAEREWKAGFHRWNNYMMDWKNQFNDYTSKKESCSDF
Procedure: as §1, §2

[5] = target: T4, recombinant human MAO-A (Homo sapiens, UniProt P21397); assay: MAO-A inhibition assay (kynuramine); type: biochemical; details: read-out: Residual activity at 10 µM (%) MAO-A
T4 construct: purchased Sigma-Aldrich
T4 sequence (P21397 1-527): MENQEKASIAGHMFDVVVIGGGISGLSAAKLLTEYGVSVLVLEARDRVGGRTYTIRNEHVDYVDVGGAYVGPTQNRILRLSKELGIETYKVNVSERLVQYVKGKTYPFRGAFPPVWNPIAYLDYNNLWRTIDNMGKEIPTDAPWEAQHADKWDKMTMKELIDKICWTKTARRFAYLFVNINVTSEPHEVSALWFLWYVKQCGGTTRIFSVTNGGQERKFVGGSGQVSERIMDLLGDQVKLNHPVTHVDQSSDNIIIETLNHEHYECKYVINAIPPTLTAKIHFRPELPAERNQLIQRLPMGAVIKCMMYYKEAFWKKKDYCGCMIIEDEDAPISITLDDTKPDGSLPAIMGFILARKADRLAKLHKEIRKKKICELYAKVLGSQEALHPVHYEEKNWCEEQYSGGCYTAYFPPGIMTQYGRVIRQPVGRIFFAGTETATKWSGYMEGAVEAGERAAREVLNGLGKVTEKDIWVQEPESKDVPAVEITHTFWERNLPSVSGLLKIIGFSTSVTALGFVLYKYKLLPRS
Procedure: as §1, §2

[6] = tested on: BChE; details: cited from earlier work
[7] = 15 min preincubation, read-out: IC50 (µM) AChE
[8] = verbascosides from Harpagophytum procumbens
[9] = flavonoids from Agrimonia pilosa

Molecule: COC(C)(C)[C@H](O)CCC(C)=CCOc1c2ccoc2cc2oc(=O)ccc12 [(R)-( +)-6′-hydroxy-7′-methoxybergamottin]
- IC50 ([1]; from Citrus hystrix): 11.2 µM

Molecule: CC(=O)O[C@@H]1[C@H](OC(=O)C=C(C)C)c2c(ccc3ccc(=O)oc23)OC1(C)C [PJ1, Isosamidin]
- remaining activity at 10 µM ([2]; inhibitor 10 µM): 85 ± 0.57%
- IC50 [3, 7]: > 40 µM
- remaining activity at 10 µM ([3]; 15 min preincubation): 92.1 ± 1.7%
- IC50 ([4]; read-out: IC50 (µM) BChE): > 40 µM
- remaining activity at 10 µM ([5]; inhibitor 10 µM): 86 ± 5.47%

Molecule: CCC(C)C(=O)O[C@@H]1c2c(ccc3ccc(=O)oc23)OC(C)(C)[C@@H]1OC(C)=O (stereo partly drawn) [PJ3, hyuganin]
- remaining activity at 10 µM ([2]; inhibitor 10 µM): 83.7 ± 2.33%
- IC50 [3, 7]: > 40 µM
- remaining activity at 10 µM ([3]; 15 min preincubation): 97.2 ± 8.3%
- IC50 ([4]; read-out: IC50 (µM) BChE): > 40 µM
- remaining activity at 10 µM ([5]; inhibitor 10 µM): 81.2 ± 3.68%

Molecule: CC(C)=CC(=O)O[C@@H]1c2c(ccc3ccc(=O)oc23)OC(C)(C)[C@@H]1OC(=O)C=C(C)C [PJ4, 3′,4′-disenecioylkhellactone]
- remaining activity at 10 µM ([2]; inhibitor 10 µM): 95.6 ± 4.8%
- IC50 [3, 7]: 21.3 ± 7.69 µM
- remaining activity at 10 µM ([3]; 15 min preincubation): 85.4 ± 7.52%
- SI = IC50 of AChE/ IC50 of BChE [3]: 1.99
- IC50 ([4]; read-out: IC50 (µM) BChE): 10.7 µM
- remaining activity at 10 µM ([5]; inhibitor 10 µM): 100.3 ± 0.39%

Molecule: C/C=C(/C)C(=O)O[C@@H]1[C@H](OC(=O)C=C(C)C)c2c(ccc3ccc(=O)oc23)OC1(C)C [PJ6, calipteryxin]
- remaining activity at 10 µM ([2]; inhibitor 10 µM): 63.1 ± 2.75%
- IC50 [3, 7]: 25.6 ± 4.5 µM
- remaining activity at 10 µM ([3]; 15 min preincubation): 76.3 ± 6.46%
- SI = IC50 of AChE/ IC50 of BChE [3]: < 0.64
- IC50 ([4]; read-out: IC50 (µM) BChE): > 40 µM
- remaining activity at 10 µM ([5]; inhibitor 10 µM): 86.1 ± 1.93%

Molecule: C/C=C(/C)C(=O)O[C@@H]1c2c(ccc3ccc(=O)oc23)OC(C)(C)[C@@H]1OC(=O)/C(C)=C\C [PJ7, anomalin]
- remaining activity at 10 µM [2]: 73.8 ± 8.23%
- IC50 [3]: 17.9 ± 5.59 µM
- remaining activity at 10 µM ([3]; 15 min preincubation): 75.4 ± 5.72%
- SI = IC50 of AChE/ IC50 of BChE [3]: < 0.45
- IC50 ([4]; IC50 (µM) BChE): > 40 µM
- remaining activity at 10 µM [5]: 74 ± 1.16%

Molecule: CC(C)=CC(=O)O[C@@H]1[C@H](OC(=O)CC(C)C)c2c(ccc3ccc(=O)oc23)OC1(C)C [PJ8, 3′-senecioyl-4′-isovalerylkhellactone]
- remaining activity at 10 µM ([2]; inhibitor 10 µM): 68.5 ± 2.1%
- IC50 [3, 7]: 31.6 ± 4.4 µM
- remaining activity at 10 µM ([3]; 15 min preincubation): 97 ± 1.4%
- SI = IC50 of AChE/ IC50 of BChE [3]: < 0.79
- IC50 ([4]; read-out: IC50 (µM) BChE): > 40 µM
- remaining activity at 10 µM ([5]; inhibitor 10 µM): 79.5 ± 2.05%

Molecule: CC(C)=CC(=O)O[C@@H]1c2c(ccc3ccc(=O)oc23)OC(C)(C)[C@@H]1OC(=O)CC(C)C [PJ9, 3′-isovaleryl-4′-senecioylkhellactone]
- remaining activity at 10 µM ([2]; inhibitor 10 µM): 75 ± 8.42%
- IC50 [3, 7]: 36.1 ± 0.66 µM
- remaining activity at 10 µM ([3]; 15 min preincubation): 86.9 ± 9.92%
- SI = IC50 of AChE/ IC50 of BChE [3]: 2.89
- IC50 ([4]; read-out: IC50 (µM) BChE): 12.5 ± 2.82 µM
- remaining activity at 10 µM ([5]; inhibitor 10 µM): 80.6 ± 5.02%

Molecule: CCC(C)C(=O)O[C@@H]1c2c(ccc3ccc(=O)oc23)OC(C)(C)[C@@H]1OC(=O)C=C(C)C (stereo partly drawn) [PJ10, 3′-senecioyl-4′-(2-methylbutyryl)khellactone]
- remaining activity at 10 µM ([2]; inhibitor 10 µM): 70.9 ± 2.61%
- IC50 [3, 7]: > 40 µM
- remaining activity at 10 µM ([3]; 15 min preincubation): 86.4 ± 5.23%
- SI = IC50 of AChE/ IC50 of BChE [3]: > 3.92
- IC50 ([4]; read-out: IC50 (µM) BChE): 10.2 µM
- remaining activity at 10 µM ([5]; inhibitor 10 µM): 92.1 ± 5.58%

Molecule: C/C=C(/C)C(=O)OC1c2c(ccc3ccc(=O)oc23)OC(C)(C)C1OC(=O)CC(C)C (stereo not drawn) [PJ11, 3′-isovaleryl-4′-angeloylkhellactone]
- remaining activity at 10 µM ([2]; inhibitor 10 µM): 89.1 ± 1.36%
- IC50 [3, 7]: > 40 µM
- remaining activity at 10 µM ([3]; 15 min preincubation): 88.1 ± 1.35%
- IC50 ([4]; read-out: IC50 (µM) BChE): > 40 µM
- remaining activity at 10 µM ([5]; inhibitor 10 µM): 75.4 ± 0.3%

Molecule: C/C=C(/C)C(=O)O[C@@H]1c2c(ccc3ccc(=O)oc23)OC(C)(C)[C@@H]1OC(=O)C(C)CC (stereo partly drawn) [PJ12]
- remaining activity at 10 µM ([2]; inhibitor 10 µM): 72.4 ± 3.7%
- IC50 [3, 7]: 29 ± 1.15 µM
- remaining activity at 10 µM ([3]; 15 min preincubation): 58.3 ± 5.37%
- SI = IC50 of AChE/ IC50 of BChE [3]: < 0.73
- IC50 ([4]; read-out: IC50 (µM) BChE): > 40 µM
- remaining activity at 10 µM ([5]; inhibitor 10 µM): 78.9 ± 3.98%

Molecule: CC(C)CC(=O)O[C@@H]1c2c(ccc3ccc(=O)oc23)OC(C)(C)[C@@H]1OC(=O)CC(C)C [PJ14, 3′,4′-diisovalerylkhellactone]
- remaining activity at 10 µM ([2]; inhibitor 10 µM): 66.1 ± 5.23%
- IC50 [3, 7]: 28.1 ± 0.33 µM
- remaining activity at 10 µM ([3]; 15 min preincubation): 51.5 ± 4.5%
- SI = IC50 of AChE/ IC50 of BChE [3]: < 0.70
- IC50 ([4]; read-out: IC50 (µM) BChE): > 40 µM
- remaining activity at 10 µM ([5]; inhibitor 10 µM): 77 ± 5.4%

Molecule: C[C@@H]1O[C@@H](O[C@@H]2[C@@H](O)[C@H](OCCc3ccc(O)c(O)c3)O[C@H](CO)[C@H]2OC(=O)/C=C/c2ccc(O)c(O)c2)[C@H](O)[C@H](O)[C@H]1O [acteoside]
- IC50 [1, 8]: 19.9 µM

Molecule: COc1ccc(CCCc2ccc(O)cc2)c(O)c1 [broussonin A]
- IC50 ([6]; from Anemarrhena asphodeloidesa): 7.5 µM

Molecule: C[C@@H]1O[C@@H](O[C@@H]2[C@@H](O)[C@H](OCCc3ccc(O)c(O)c3)O[C@H](CO)[C@H]2O)[C@H](O)[C@H](O)[C@H]1O [decaffeoylverbascoside]
- IC50 [1, 8]: 16.1 µM

Molecule: CC1(C)Oc2cc3oc(=O)ccc3cc2C[C@@H]1O [decursinol]
- IC50 ([1]; from Angelica gigas Nakai): 28 µM

Molecule: COc1ccc2c(c1OC)CN1CCc3cc4c(cc3C1=C2)OCO4 [dihydroberberine]
- IC50 [1]: 1.18 µM

Molecule: CCC(C)C(=O)O[C@@H]1c2c(ccc3ccc(=O)oc23)OC(C)(C)[C@@H]1OC(C)=O (stereo partly drawn) [hyuganin C]
- IC50 ([6]; from Mutellina purpurea): 38.9 µM

Molecule: C[C@@H]1O[C@@H](O[C@@H]2[C@@H](O)[C@H](OCCc3ccc(O)c(O)c3)O[C@H](COC(=O)/C=C/c3ccc(O)c(O)c3)[C@H]2O)[C@H](O)[C@H](O)[C@H]1O [isoacteoside]
- IC50 ([6]; from H. procumbens): 29.7 µM

Molecule: O=c1c(O)c(-c2ccc(O)cc2)oc2cc(O)cc(O)c12 [kaempferol]
- IC50 ([6]; from Cleistocalyx operculatus): 62.5 µM

Molecule: CC1=C2OCC(C)c3ccc(C)c(c32)C(=O)C1=O (stereo not drawn) [mansonone E]
- IC50 ([1]; from Mansonia gagei): 23.5 µM

Molecule: CCC(C)C(=O)c1c(O)c2c(c3c(-c4ccccc4)cc(=O)oc13)OC(C)(CCC=C(C)C)C=C2 (stereo not drawn) [mesuagenin B]
- IC50 ([1]; from Mesua elegans): 0.7 µM

Molecule: COc1cc2ccc(=O)oc2cc1O [scopoletin]
- IC50 ([1]; from Vaccinium oldhami Miquel): 52 µM

Molecule: COc1cc2oc(-c3ccc(O)cc3)cc(=O)c2c(O)c1[C@@H]1O[C@H](CO)[C@@H](O)[C@H](O)[C@H]1O [swertisin, isovitexin-7-O-methyl ether]
- IC50 ([1]; converted from µg/mL, from Anthocleista vogelii): 71.9 µM
- IC50 AChE ([1]; from Anthocleista vogelii): 32.09 µg/mL (≈ 71.9 µM)

Molecule: O=C(/C=C/c1ccc(O)cc1)OC[C@H]1O[C@@H](Oc2c(-c3ccc(O)cc3)oc3cc(O)cc(O)c3c2=O)[C@H](O)[C@@H](O)[C@@H]1O [tiliroside]
- IC50 [1, 9]: 23.5 µM

Molecule: corenone B
- IC50 ([6]; converted from μg/mL, from Niphogeton dissecta): 49.5 µM
- IC50 BChE ([6]; from Niphogeton dissecta): 10.9 µg/mL
